Residues, ends and D or L forms follow the SMILES beside them.
Tests used:
Aβ1-42 [1] = molecular target: T1, Aβ1-42 (Homo sapiens, UniProt P05067); assay: ELISA binding of Aβ1-42 to plate-coated neutrophil proteins and derived peptides; settings: 150 nM Aβ1-42; plate coated with protein/peptide at 5 μg/ml; no protease inhibitor
Description: CAP37, NE, and CG were purified from human neutrophils and purchased from Athens Research and Technology. BSA was from Sigma Aldrich. CAP37-derived peptides were synthesized by CS Bio Co with a purity >95%. Maxisorp plates from Nunc were coated with 100 μl neutrophil protein, peptide, or BSA diluted at 5 μg/ml in PBS with or without 1 mM PMSF purchased from Sigma Aldrich (for experiments with CAP37, NE, and BSA) or ±125 μM chymostatin purchased from Santa Cruz (for experiments with CG and BSA). Plate coating was done at room temperature for 2 hours with shaking and then at 4° C. overnight. Plates were washed three times in PBST (PBS+0.05% tween), then blocked with 3% BSA in PBST for 1 hour at room temperature with shaking. Plates were washed 3× in PBST, and 150 nM Aβ1-42 (purchased from Bachem and reconstituted in 1 mM NaOH) was added in 0.1% BSA in PBST and incubated 70 minutes at 37° C. Plates were then washed 4 times with PBST and monoclonal mouse anti-amyloid precursor protein/amyloid beta antibody, purchased from Cell Signaling Technology was added at a 1:500 dilution in 1% BSA in PBST and incubated for 1 hour at room temperature with shaking. Plates were washed 4× in PBST and donkey anti mouse HRP-conjugated secondary antibody from Jackson ImmunoResearch Laboratories was added at 1:10,000 in PBST and incubated 1 hour at room temperature with shaking, then washed 4 times in PBST. […] Sulfuric acid (5N) was added to each well to stop the reaction, and the absorbance at 492 nm was read on a Biotek Synergy II plate reader.

[2] = tested on: mouse neuroblastoma cell line Neuro-2a; assay: Neurotoxicity assay of Aβ1-42 fibrils/oligomers (trypan blue cell death); type: cell-based; settings: oligomers formed 15 min in presence of increasing concentrations; 18 μM Aβ1-42 on cells, 24 hours
Description: A mouse neuroblastoma cell line Neuro-2a from ATCC was used for these experiments. Cells were grown and seeded in 96 well plates at 20,000 cells per well in complete medium (MEM α, nucleosides, no phenol red from Gibco, with 10% heat inactivated fetal bovine serum from Gibco, and penicillin/streptomycin from Lonza). At 24 hours after seeding, cells were washed with warmed MEM α, and then incubated in 90 μl MEM α+N2 Supplements+20 μl test sample (Aβ1-42 prepared as described below). Cells were incubated another 24 hours at 37° C., and then dislodged by pipetting up and down vigorously. 10 μl of cells were added to 10 μl trypan blue dye (0.4% solution) from BioRad, mixed and counted in a BioRad TC20 cell counter. The percent of living and dead cells was recorded for each well. In the case of the water and Triton X100 controls, 20 μl MEM α+N2 Supplements was added instead of the test sample and, just before counting the cells, 20 μl of medium was removed and replaced with 20 μl water or Triton X100 at a final concentration of 0.1%.
Monomeric Aβ1-42 (hexafluoroisopropanol treated Aβ1-42) from Bachem was reconstituted at 5 mM in anhydrous DMSO. Untreated Aβ1-42 from CS Bio was also used in these experiments. It was first treated with 1 mM in hexafluoroisopropanol from Sigma Aldrich, incubated 30 min at room temperature, and left open to dry in the fume hood overnight. It was then vacuum desiccated for 1 hour at room temperature. Dry films of Aβ1-42 were stored at −20° C. until use to keep it under a monomeric form. Aβ1-42 from CS Bio was also reconstituted in anhydrous DMSO at 5 mM before use.
To prepare the fibril and oligomer test samples, monomeric Aβ1-42 was placed under conditions favoring either formation of fibrils or oligomers. To form fibrils, 100 μM Aβ1-42 was added to Anaspec fibrillation buffer A±neutrophil protein, and incubated at 37° C. 24 hours before addition to the cells at a final concentration of 18 μM. Neutrophil proteins were used at Aβ/Protein ratios that led to 50% inhibition of fibrillation (IC50), previously determined for each protein in the fibrillation assay. To form oligomers, MEM α+N2 Supplements was used instead of the fibrillation buffer A±increasing concentrations of neutrophil protein or CAP37-derived peptide. Each mixture was then added to a tube containing freshly prepared Aβ1-42 in DMSO at a final concentration of 100 μM, and incubated 15 min at room temperature. These test samples were then tested on the cells at a final concentration of 18 μM.
Oligomers were formed by incubating 100 μM Aβ1-42 in MEMα+N2 Supplements at 4° C. for 3 days. […] Finally, these oligomers were added to neurons at a final concentration of 18 μM, and percent cell death was measured at 24 h.

Aβ1-42 [3] = molecular target: T1, Aβ1-42; assay: Amyloid Beta (1-42) Thioflavin T fibrillation (aggregation) assay; type: biochemical; parameters: used to monitor the formation of Aβ1-42 peptide fibrils; purchased Anaspec
Description: The Amyloid Beta (1-42) Thioflavin T Aggregation Kit was purchased from Anaspec and used to monitor the formation of Aβ1-42 peptide fibrils, according to the manufacturer's instructions, with some modifications. Thioflavin T dye was diluted to 250 μM in fibrillation buffer A and kept in the dark until use. […] Neutrophil proteins were tested in the absence and presence of protease inhibitors. […] Chymostatin was dissolved in DMSO and used at 125 μM final concentration in reactions with CG. Reactions were pipetted up and down twice in the wells with a multichannel pipette to ensure mixing, and fluorescence (ΔEX=440 nm, ΔEm=485 nm) was read every 5 minutes for 3 hours on a BioTek Synergy 2 plate reader with Gen 5 software, with a sensitivity set at 65.

Aβ1-42 [4] = molecular target: T1, Aβ1-42; assay: Enzyme activity assay (cleavage of Aβ1-42, MALDI-TOF); type: biochemical; parameters: used to monitor the formation of Aβ1-42 peptide fibrils; purchased Anaspec
Description: Aβ1-42 treated with hexafluoroisopropanol was purchased from Bachem and reconstituted in anhydrous DMSO at 5 mM. Reactions were set up with increasing concentrations of enzyme (CAP37, NE or CG) and 10 μM Aβ1-42 substrate in PBS, and incubated at 37° C. for 1 hour. Reactions were stopped by the addition of acetonitrile and trifluoroacetic acid (TFA) to final concentrations of 7.5% and 0.5% respectively. Internal standard (Aβ40-1 from Bachem) dissolved in 10% acetic acid was added to a final concentration of 8 μg/ml. A 10 μl aliquot of this mixture was desalted on a C18 OMIX tip from Agilent Technologies. First, the C18 resin was rinsed with 2×10 μl of 50% methanol, then 2×10 μl of equilibration buffer (5% acetonitrile 0.5% TFA), then the sample was applied to the resin by pipetting 10 times through the resin, which was then washed twice with equilibration buffer and eluted with 75% acetonitrile 0.1% TFA.
Desalted samples were analyzed by Matrix Assisted Laser Desorption/Ionization-Time of Flight mass spectrometry (MARLDI-TOF) using a Bruker Ultraflex II instrument and Flex Control Software. […] Chromatographs were analyzed with Flex Analysis software. […] The ratio of the Aβ1-42 peak intensity divided by the internal standard peak intensity was calculated for each spot, and triplicate spots were averaged to determine the amount of uncleaved Aβ in each enzymatic reaction.

T1 sequence (P05067 672-713 limits assumed): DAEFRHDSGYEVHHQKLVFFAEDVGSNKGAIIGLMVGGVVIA

binding of Aβ1-42 (Aβ1-42 [1]): binds
IC50 (Aβ1-42 [3]; at time of complete fibrillation of Aβ1-42 control, no protease inhibitor): ~1000 nM
inhibition of Aβ1-42 fibrillation (in words) (Aβ1-42 [3]; increasing concentrations of peptide, Rfu): able to inhibit fibrillation
molar ratio inhibitor/Aβ1-42 corresponding to IC50 of fibrillation (Aβ1-42 [3]; ratio at IC50): 1/10
enzymatic activity on Aβ1-42 (Aβ1-42 [4]): do not have enzymatic activities
SMILES: CC(C)C[C@H](NC(=O)[C@H](CCCNC(=N)N)NC(=O)CNC(=O)CNC(=O)[C@H](CO)NC(=O)[C@H](CCCNC(=N)N)NC(=O)[C@H](Cc1c[nH]c2ccccc12)NC(=O)[C@H](CO)NC(=O)CNC(=O)[C@H](Cc1c[nH]c2ccccc12)NC(=O)CNC(=O)[C@H](C)NC(=O)[C@@H](NC(=O)[C@H](CCC(N)=O)NC(=O)[C@H](CS)NC(=O)[C@H](CCCNC(=N)N)NC(=O)[C@@H](NC(=O)CN)[C@@H](C)O)C(C)C)C(=O)N[C@@H](CO)C(=O)N[C@@H](CCCNC(=N)N)C(=O)N[C@@H](Cc1ccccc1)C(=O)N1CCC[C@H]1C(=O)N[C@@H](CCCNC(=N)N)C(=O)N[C@@H](Cc1ccccc1)C(=O)N[C@H](C(=O)N[C@@H](CC(N)=O)C(=O)N[C@H](C(=O)O)C(C)C)C(C)C [120-146 WR] (H-GTRCQVAGWGSWRSGGRLSRFPRFVNV-OH; N-terminus and C-terminus assumed)
effect on Aβ1-42 oligomer toxicity [2]: significantly inhibited
